Earlier results in US8273721B2, “Combination treatment for bladder cancer” (Endo Pharmaceuticals Solutions Inc., priority 2008, dated 2012).

O=C(OC1CC2CCC(C1)[N+]21CCCC1)C(O)(c1ccccc1)c1ccccc1.[Cl-] (stereo not drawn) [trospium chloride, spiro[8-azoniabicyclo[3,2,1]octane-8,1′pyrrolidinium]-3-[(hydroxydiphenyl-acetyl)-oxy]chloride(1α, 3β, 5α)(9Cl)]
solubility in water (water): approximately 1 g/2 mL

(2S-cis)-2-[1,2,3,4,6,11-hexahydro-2,5,12-trihydroxy-7-methoxy-6,11-dioxo-4-[[2,3,6-trideoxy-3-[(trifluoroacetyl)amino]-α-L-lyxo-hexopyranosyl]oxyl]-2-naphthacenyl]-2-oxoethyl pentanoate [Valrubicin]
solubility in organic solvents (in words) (methylene chloride, ethanol, methanol and acetone): soluble | solubility in water (in words) (water): relatively insoluble
